Measured values published in patent US5264586A, “Analogs of calicheamicin gamma1I, method of making and using the same” (priority 1992, dated 1993).

Key:
[1] = test system: H-322 (lung carcinoma); experiment: Sulforhodamine B cytotoxicity assay, H-322; assay type: cell-based; details: NCI-H322, 72 hours, SRB
Description: (§1) Sulfurodamine B Cytotoxicity Assay
(§2) Cytotoxicity assays using (-)-calicheamicinone were carried out as follows:
(§3) 1. Preparation of target cells in 96-well plates
(§4) g. Adjust volume of cell suspension with T.C. media to give a density of 1×10^5 cells/mL.
(§5) j. Incubate plates for 24 hours at 37° C., 5-10 percent CO2 in a humidified incubator.
(§6) a. Stock drug solutions were prepared by dissolving drug in the appropriate solvent (determined during chemical characterization studies) and sterile filtering the drug-solvent solution through a sterile 0.2 μ filter unit. An aliquot was taken from each filtered drug solution and the O.D. was measured to determine the drug concentration.
(§7) b. Dilute the stock drug solution prepared above with T.C. medium to the desired initial concentration (10^-2 -10^-4 M). A minimum volume of 220 μL of diluted drug is required per 96-well plate used in the assay.
(§8) b. Add 100 μL of the initial compound dilution to adjacent duplicate wells in Columns #2. (Four materials can be tested in duplicate per 96-well plate.)
(§9) d. Transfer 10 μL to the appropriate wells in Column #4 and continue to make 1:10 dilutions of compound across the plate through Column #12.
f. […]
(§10) g. Read plates on a microtiter plate reader at […].
(§11) IC50 values; i.e., the concentration of Compound required to kill one-half of the treated cells, were then calculated. […]

[2] = test system: ATCC Molt-4 (T-cell leukemia); experiment: Sulforhodamine B cytotoxicity assay, Molt-4; assay type: cell-based; details: 72 hours, SRB
Description: as §1, §2, §3, §4, §5, §6, §7, §8, §9
f. […]
as §10, §11

[3] = test system: ATCC HL-60 (promyeocytic leukemia); experiment: Sulforhodamine B cytotoxicity assay, HL-60; assay type: cell-based; details: 72 hours, SRB
Description: as §1, §2, §3, §4, §5, §6, §7, §8, §9
f. […]
as §10, §11

[4] = test system: ATCC P-388 (Mouse leukemia); experiment: Sulforhodamine B cytotoxicity assay, P-388; assay type: cell-based; details: SRB
Description: as §1, §2, §3, §4, §5, §6, §7, §8, §9
f. […]
as §10, §11

[5] = test system: ATCC Capan-1 (pancreatic carcinoma); experiment: Sulforhodamine B cytotoxicity assay, Capan-1; assay type: cell-based; details: 72 hours, SRB
Description: as §1, §2, §3, §4, §5, §6, §7, §8, §9
f. […]
as §10, §11

[6] = test system: NHDF (Normal human dermal fibroblast); experiment: Sulforhodamine B cytotoxicity assay, NHDF; assay type: cell-based; details: 72 hours, SRB
Description: as §1, §2, §3, §4, §5, §6, §7, §8, §9
f. […]
as §10, §11

[7] = test system: ATCC HT-29 (Colon carcinoma); experiment: Sulforhodamine B cytotoxicity assay, HT-29; assay type: cell-based; details: 72 hours, SRB
Description: as §1, §2, §3, §4, §5, §6, §7, §8, §9
f. […]
as §10, §11

[8] = test system: CHO (Chinese hampster ovary); experiment: Sulforhodamine B cytotoxicity assay, CHO; assay type: cell-based; details: 72 hours, SRB
Description: as §1, §2, §3, §4, §5, §6, §7, §8, §9
f. […]
as §10, §11

[9] = test system: ATCC Ovcar 3 (Ovarian carcinoma); experiment: Sulforhodamine B cytotoxicity assay, Ovcar 3; assay type: cell-based; details: 72 hours, SRB
Description: as §1, §2, §3, §4, §5, §6, §7, §8, §9
f. […]
as §10, §11

[10] = test system: ATCC SK-MEL-28 (Melanoma); experiment: Sulforhodamine B cytotoxicity assay, SK-MEL-28; assay type: cell-based; details: 72 hours, SRB
Description: as §1, §2, §3, §4, §5, §6, §7, §8, §9
f. […]
as §10, §11

[11] = test system: UCLA-P3 (lung carcinoma); experiment: Sulforhodamine B cytotoxicity assay, UCLA-P3; assay type: cell-based; details: SRB
Description: as §1, §2, §3, §4, §5, §6, §7, §8, §9
f. […]
as §10, §11

[12] = test system: ATCC MCF-7 (Breast carcinoma); experiment: Sulforhodamine B cytotoxicity assay, MCF-7; assay type: cell-based; details: SRB
Description: as §1, §2, §3, §4, §5, §6, §7, §8, §9
f. […]
as §10, §11

[13] = test system: DNA; details: double stranded DNA; cited from earlier work
[14] = test system: murine tumors; details: cited from earlier work

## COc1cccc2c1C(=O)c1c(O)c3c(c(O)c1C2=O)C[C@@](O)(C(C)=O)C[C@@H]3O[C@H]1C[C@H](N)[C@H](O)[C@H](C)O1 [Daunomycin, daunomycin]
[1]
  IC50: 1.6 µM
[2]; Homo sapiens
  IC50: 0.0001 µM
[3]; Homo sapiens
  IC50: 0.2 µM
[4]; Mus musculus, P388, 72 hours
  IC50: 0.2 µM
[5]; Homo sapiens
  IC50: 0.78 µM
[6]; Homo sapiens
  IC50: 0.39 µM
[7]; Homo sapiens
  IC50: 1.6 µM
[8]
  IC50: 1.6 µM
[9]; Homo sapiens
  IC50: 0.39 µM
[10]; Homo sapiens
  IC50: 1.6 µM
[11]; Homo sapiens, UCLA P-3, 72 hours
  IC50: 1.6 µM
[12]; Homo sapiens, MCF7, 72 hours
  IC50: 0.39 µM

## CCN[C@H]1CO[C@@H](O[C@H]2[C@H](O[C@H]3C#C/C=C\C#C[C@]4(O)CC(=O)C(NC(=O)OC)=C3/C4=C\CSSSC)O[C@H](C)[C@@H](NO[C@H]3C[C@H](O)[C@H](SC(=O)c4c(C)c(I)c(O[C@@H]5O[C@@H](C)[C@H](O)[C@@H](OC)[C@H]5O)c(OC)c4OC)[C@@H](C)O3)[C@@H]2O)C[C@@H]1OC [calicheamicin]
[13]
  DNA cleavage site / sequence specificity: 5' side of a TCCT sequence
[14]; murine tumors
  optimal dose against murine tumors: 0.5-1.5 microgram (μg) per kilogram (kg) of body weight
[14]; vs adriamycin
  activity relative to adriamycin against murine tumors: about 1000 -fold more active

## Neocarzinostatin
[13]
  DNA cleavage site / sequence specificity: sequence-specificity in its DNA cleavage

## COC(=O)NC1=C2/C(=C\CSSSC)[C@](O)(C#C/C=C\C#C[C@@H]2O)CC1=O [(-)-calicheamicinone, (-)-Calicheamicinone]
[2]
  IC50: 0.001 µM
[3]
  IC50: 0.2 µM
[4]; 72 hours
  IC50: 0.39 µM
[5]
  IC50: 3.1 µM
[6]
  IC50: 13 µM
[7]
  IC50: 28 µM
[8]
  IC50: 63 µM
[9]
  IC50: 25 µM
[10]
  IC50: 25 µM
[11]; 72 hours
  IC50: 25 µM
[12]; 72 hours
  IC50: 13 µM
